From patent publication US9988343B2, “Inhibitors of histone deacetylase” (Dana-Farber Cancer Institute, Inc., priority 2013, dated 2018)

Assays:
[1] = test system: pSTAT3 (Tyr705); test: Immunoblot of STAT3 phosphorylation in MM cells; format: cell-based, human; details: RPMI8226 infected with shRNAs, bortezomib 5 nM, 6 hours (FIG. 7C)
Experimental: MM cells were harvested and lysed using sodium dodecyl sulfate-polyacrylamide gel electrophoresis (SDS-PAGE) sample buffer containing 60 mM Tris-HCl, pH 6.8, 2% SDS, 10% glycerol, 0.005% bromophenol blue, 5 mM ethylenediaminetetraacetic acid, 5 mM NaF, 2 mM […], 1 mM phenylmethylsulfonyl fluoride (PMSF), 5 μg/mL leupeptin, and 5 μg/mL aprotinin; and then heated at 100° C. for 5 min. After the determination of protein concentration using DC protein assay (Bio-Rad, Hercules, Calif.), β-mercaptoethanol (β-ME) was added to the whole-cell lysates to a 2% final β-ME concentration. The whole-cell lysates were subjected to SDS-PAGE, transferred to nitrocellulose membranes (Bio-Rad, Hercules, Calif.) or polyvinylidene fluoride membranes (Millipore, Billerica, Mass.), and immunoblotted with anti-histone H3, -HDAC1, -HDAC2, -HDAC3, -Acetyl-histone H2A (Lysine 5) (Ac-H2AK5), -Acetyl-histone H2B (lysine 5) (Ac-H2 BK5), -Acetyl-histone H3 (lysine 9) (Ac-H3K9), -Acetyl-histone H4 (lysine 8) (Ac-H4K8), -glyceraldehyde-3-phosphate dehydrogenase (GAPDH), -poly (ADP-ribose) polymerase (PARP), -caspase-3, -caspase-8, -caspase-9, -Signal transducers and activators of transcription 3 (STAT3), -phospho-STAT3 (pSTAT3) (tyrosine 705), -pSTAT3 (serine 727), -p21, -Janus kinase 2 (JAK2), -acetylated-Lysine (Ac-K), and anti-phosphorylated-tyrosine antibodies (Abs; Cell Signaling Technology, Beverly, Mass.).
MM.1S, U266, and INA6 cells were cultured with DMSO control or LBH589 (50 and 100 nM) for 8 h.
MM.1S cells pretreated with or without 50 nM LBH589 for 8 hours were then treated with IL-6 (10 ng/mL) or BMSC culture supernatants (#1 and #2) for 15 minutes. Whole cell lysates were subjected to immunoblotting with anti-pSTAT3 (Tyr705) and STAT3 Abs.
In addition, INA-6 cells were cultured with DMSO control, LBH589 (50 nM), TSA (1 μM) or SAHA (2 μM) for 8 hours. Whole cell lysates were subjected to immunoblotting with anti-pSTAT3 (Tyr705), STAT3, and GAPDH Abs.
Whole cell lysates were subjected to immunoblotting with anti-pSTAT3 (Tyr705), -STAT3, -pERK1/2 (Thr202/204), and -ERK1/2 Abs (FIG. 6G).
See, e.g., Hideshima et al. Blood. 2006, 107:4053-4062. Since bortezomib upregulates activated STAT3 in head and neck squamous cell carcinoma (see, e.g., Li et al. Mol Cancer Ther 2009. 8:2211-2220), experiments were conducted to test whether bortezomib enhances p-STAT3 in MM cells. RPMI8226 cells were infected with Luc, HDAC1 (sh1), HDAC2 (sh1) or HDAC3 (sh1) shRNAs and then treated with or without bortezomib (5 nM) for 6 hours. Whole cell lysates were subjected to immunoblotting with anti-STAT3, -pSTAT3 (Tyr705), -pERK1/2 (Thr202/204) and -ERK1/2 Abs.

[2] = test system: HDAC3 knockdown cells; test: MTT cell growth in HDAC3 knockdown cells; format: cell-based, human
Experimental: HDAC1, HDAC2 and HDAC3 pLKO.1 shRNA vectors were obtained from the RNA Interference Screening Facility at the Dana-Farber Cancer institute. Recombinant lentivirus was produced and infection of MM cells was performed using standard methods in the art.
In addition, the effect of bortezomib on HDAC3 knockdown cells was examined. RPMI8226 (FIG. 7B, left panel) and MM.1S (FIG. 7B, right panel) cells were infected with Luc or HDAC3 (#1 and #2) shRNAs. Cells were then cultured with or without bortezomib (3 nM) for 48 hours and cell growth was assessed by MTT assay. Data represent mean±SD from triplicate cultures.
Also, experiments were conducted to determine whether dual inhibition of both HDAC3 and HDAC6 was more cytotoxic than either HDAC3 or HDAC6 when combined with bortezomib. Cell growth was assayed by MTT assay in the presence of Luc (control), sh1 or sh2 shRNAs against HDAC3 alone, or in combination with a selective HDAC6 inhibitor—tubastatin-A, or in combination with both tubastatin-A and bortezomib.

[3] = test system: JMJ family demethylases, including several variants of JMJD2 and JMJD1; details: Kruidenier et al. 2012; cited from earlier work
[4] = test system: JMJD2A in HeLa cells; details: read-out: IC50 H3K9me3 demethylation by JMJD2A, King et al. 2010; cited from earlier work
[5] = target: PHF8 (Homo sapiens, UniProt Q9UPP1); details: King et al. 2010; cited from earlier work
[6] = test system: MM cell lines; test: Cell growth inhibition assay (MTT) in MM cell lines; format: cell-based, human; details: MM cell lines, 48 hours, MTT (FIG. 1A)
Experimental: To measure proliferation of MM cells, the rate of DNA synthesis was measured by ^3[H]-thymidine (Perkin-Elmer) uptake.
The growth inhibitory effect of Merck60 (HDACL, 2 inhibitor previously reported as compound #60 by Method et al. Bioorg. Med. Chem. Lett. 2008. 18(3):973-8) versus MS275 (HDAC1, 2, 3 inhibitor) was examined in MM cell lines using MTT assay. MM cells were cultured with Merck60 (left panel) or MS275 (right panel) for 48 hours. Cell growth was assessed by MTT assay. All experiments were performed 3 times in quadruplicate. Data represent mean±SD.
Cell growth was assessed by MTT assay. All experiments were performed 3 times in quadruplicate. Data represent mean±SD.

[7] = test system: RPMI8226 cells; test: Immunoblot of histone acetylation in RPMI8226 cells; format: cell-based, human; details: RPMI8226, 12 h, compared with Merck60 (FIG. 1C)
[8] = test system: RPMI8226 cells; test: Combination with bortezomib, MTT cytotoxicity, combination index; format: cell-based, human; details: for CI (combination index): RPMI8226, MTT, 24 h
Experimental: The combined effect of drugs was analyzed by isobologram analysis using the Compusyn software program (ComboSyn, Inc.); a combination index (CI)<1 is indicative of a synergistic effect.
All experiments were performed 3 times in quadruplicate. Data represent mean±SD (FIG. 7D).

Chain of PHF8 (Q9UPP1 whole entry, species assumed): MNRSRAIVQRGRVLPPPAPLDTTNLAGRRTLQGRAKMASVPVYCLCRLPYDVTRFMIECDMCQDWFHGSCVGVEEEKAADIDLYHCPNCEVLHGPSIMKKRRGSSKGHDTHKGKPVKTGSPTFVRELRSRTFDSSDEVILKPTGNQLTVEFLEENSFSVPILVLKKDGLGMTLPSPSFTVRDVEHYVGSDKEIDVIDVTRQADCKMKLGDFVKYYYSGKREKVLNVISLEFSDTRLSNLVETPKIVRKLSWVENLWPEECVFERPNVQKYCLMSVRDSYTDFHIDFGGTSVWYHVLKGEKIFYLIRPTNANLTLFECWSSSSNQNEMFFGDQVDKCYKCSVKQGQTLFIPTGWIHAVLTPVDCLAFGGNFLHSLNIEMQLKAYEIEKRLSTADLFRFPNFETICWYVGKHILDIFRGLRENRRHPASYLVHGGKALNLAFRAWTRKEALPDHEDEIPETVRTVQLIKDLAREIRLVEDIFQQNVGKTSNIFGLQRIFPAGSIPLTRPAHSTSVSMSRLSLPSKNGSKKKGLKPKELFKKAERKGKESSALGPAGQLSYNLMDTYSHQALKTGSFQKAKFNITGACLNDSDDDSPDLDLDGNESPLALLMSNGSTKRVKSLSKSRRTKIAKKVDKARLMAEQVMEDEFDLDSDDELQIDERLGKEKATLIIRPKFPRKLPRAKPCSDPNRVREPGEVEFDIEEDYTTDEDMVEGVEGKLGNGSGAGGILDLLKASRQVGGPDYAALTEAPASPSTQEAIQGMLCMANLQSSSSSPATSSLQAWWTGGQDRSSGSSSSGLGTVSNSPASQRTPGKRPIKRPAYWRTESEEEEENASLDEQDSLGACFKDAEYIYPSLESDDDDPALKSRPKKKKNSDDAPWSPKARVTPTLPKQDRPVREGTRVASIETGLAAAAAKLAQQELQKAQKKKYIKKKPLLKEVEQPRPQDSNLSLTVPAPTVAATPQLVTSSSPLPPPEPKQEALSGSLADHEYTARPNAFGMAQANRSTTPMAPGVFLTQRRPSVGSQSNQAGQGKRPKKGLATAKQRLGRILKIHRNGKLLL

## CC(C)CC(NC(=O)[C@H](Cc1ccccc1)NC(=O)c1cnccn1)B(O)O (stereo in doubt) [bortezomib, [(1R)-3-methyl-1-[[(2S)-1-oxo-3-phenyl-2-[(pyrazinylcarbonyl)amino]propyl]amino]butyl]boronic acid]
[1]
  p-STAT3: upregulated p-STAT3
[2]; RPMI8226 and MM.1S with HDAC3 shRNAs, bortezomib 3 nM, 48 hours, MTT (FIG. 7B)
  cytotoxicity in HDAC3 knockdown cells: significantly enhances cytotoxicity

## O=C([O-])CCNc1cc(N2CCc3ccccc3CC2)nc(-c2ccccn2)n1.[Na+] [GSK J1, 3-((6-(4,5-dihydro-1H-benzo[d]azepin-3(2H)-yl)-2-(pyridin-2-yl)pyrimidin-4-yl)amino)propanoate, monosodium salt]
[3]
  activity against a panel of additional JMJ family demethylases: inactive

## O=C(O)c1ccc(O)c2ncccc12 [IOX1, 8-hydroxy-5-quinolinecarboxylic acid]
[4]
  IC50: 87 µM
[5]
  IC50: 13.3 µM

## Nc1ccccc1NC(=O)c1ccc(CNC(=O)OCc2cccnc2)cc1 [MS275]
[6]
  MM cell growth inhibition: significant MM cell growth inhibition
[7]
  acetylation of histones (H2A, H2B, H3 and H4): more potently induced acetylation of histones
[8]; HDAC inhibitor 1 μM + bortezomib 4 nM
  CI (combination index): 0.81
[8]; HDAC inhibitor 2 μM + bortezomib 2 nM
  CI (combination index): 0.56
[8]; HDAC inhibitor 2 μM + bortezomib 3 nM
  CI (combination index): 0.63
[8]; HDAC inhibitor 2 μM + bortezomib 4 nM
  CI (combination index): 0.76
[8]; HDAC inhibitor 3 μM + bortezomib 2 nM
  CI (combination index): 0.53
[8]; HDAC inhibitor 3 μM + bortezomib 3 nM
  CI (combination index): 0.62
[8]; HDAC inhibitor 3 μM + bortezomib 4 nM
  CI (combination index): 0.77
[8]; RPMI8226, bortezomib 0-4 nM + 1-3 μM, 24 hours (FIG. 7A)
  cytotoxicity in combination with bortezomib: synergistic cytotoxicity

## CN1CCc2c(c3ccccc3n2Cc2ccc(C(=O)NO)cc2)C1 [tubastatin-A]
[2]; MTT, tubastatin-A added (FIG. 8B)
  cytotoxicity of combined HDAC3 knockdown with bortezomib: further enhanced cytotoxicity
